Test system: NCI-H196 complex spheroids with HUVEC/MSC, growth % T/C
Assay: Anticancer human tumor NCI-H196 cell line growth inhibition [Asc];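 further: spheroids exposed to compound for 7 days before measurement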;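 on viability, T/C: 100% = DMSO vehicle control wells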
Details: for IC50: curve of first compound; for viability, T/C: stronger effect = lower value
Outline: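 Tumor cells were grown as multicellular spheroids with stromal HUVEC and mesenchymal stem cells and treated singly or in combination. Concentrations fell in half-log steps from the clinical Cmax, or from 10 microM where none was known.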

[1] = second compound 0.01 µM, first compound 0.00316 µM
[2] = second compound 0.01 µM, first compound 0.01 µM
[3] = second compound 0.01 µM, first compound 0.0316 µM
[4] = second compound 0.01 µM, first compound 0.1 µM
[5] = second compound 0.01 µM, first compound 0.316 µM
[6] = second compound 0.01 µM, first compound 1 µM
[7] = second compound 0.0316 µM, first compound 0.00316 µM
[8] = second compound 0.0316 µM, first compound 0.01 µM
[9] = second compound 0.0316 µM, first compound 0.0316 µM
[10] = second compound 0.0316 µM, first compound 0.1 µM
[11] = second compound 0.0316 µM, first compound 0.316 µM
[12] = second compound 0.0316 µM, first compound 1 µM
[13] = second compound 0.1 µM, first compound 0.00316 µM
[14] = second compound 0.1 µM, first compound 0.01 µM
[15] = second compound 0.1 µM, first compound 0.0316 µM
[16] = second compound 0.1 µM, first compound 0.1 µM
[17] = second compound 0.1 µM, first compound 0.316 µM
[18] = second compound 0.1 µM, first compound 1 µM
[19] = second compound 0.316 µM, first compound 0.00316 µM
[20] = second compound 0.316 µM, first compound 0.01 µM
[21] = second compound 0.316 µM, first compound 0.0316 µM
[22] = second compound 0.316 µM, first compound 0.1 µM
[23] = second compound 0.316 µM, first compound 0.316 µM
[24] = second compound 0.316 µM, first compound 1 µM
[25] = second compound 1 µM, first compound 0.00316 µM
[26] = second compound 1 µM, first compound 0.01 µM
[27] = second compound 1 µM, first compound 0.0316 µM
[28] = second compound 1 µM, first compound 0.1 µM
[29] = second compound 1 µM, first compound 0.316 µM
[30] = second compound 1 µM, first compound 1 µM

For `Cc1nc(N2CCC3(CC2)COC(C)C3N)c(CO)nc1Sc1ccnc(N)c1Cl` (stereo not given) + CCN1C(C(=O)NC23CCC(C(=O)O)(CC2)CC3)C(c2cccc(Cl)c2F)C2(C(=O)Nc3cc(Cl)ccc32)C12CCCCC2, the IC50 (second compound 0.03 µM) was 1540 nM, the IC50 (second compound 0.0949 µM) was 1900 nM and the IC50 (second compound 0.3 µM) was 1600 nM. The IC50 (second compound 0.949 µM) was 1730 nM, the IC50 (second compound 3 µM) was 1570 nM and the viability, T/C (second compound 0.03 µM, first compound 0.00949 µM) was 102%. It also gave a viability, T/C (second compound 0.03 µM, first compound 0.03 µM) of 103%, a viability, T/C (second compound 0.03 µM, first compound 0.0949 µM) of 115% and a viability, T/C (second compound 0.03 µM, first compound 0.3 µM) of 102%. For the same molecule, the viability, T/C (second compound 0.03 µM, first compound 0.949 µM) was 64.6%, the viability, T/C (second compound 0.03 µM, first compound 3 µM) was 30.2% and the viability, T/C (second compound 0.0949 µM, first compound 0.00949 µM) was 108%. For the same molecule, the viability, T/C (second compound 0.0949 µM, first compound 0.03 µM) was 113%, the viability, T/C (second compound 0.0949 µM, first compound 0.0949 µM) was 109% and the viability, T/C (second compound 0.0949 µM, first compound 0.3 µM) was 95.5%. The viability, T/C (second compound 0.0949 µM, first compound 0.949 µM) was 74.1%, the viability, T/C (second compound 0.0949 µM, first compound 3 µM) was 34.5% and the viability, T/C (second compound 0.3 µM, first compound 0.00949 µM) was 118%. The viability, T/C (second compound 0.3 µM, first compound 0.03 µM) was 124%, the viability, T/C (second compound 0.3 µM, first compound 0.0949 µM) was 119% and the viability, T/C (second compound 0.3 µM, first compound 0.3 µM) was 99.8%. For the same molecule, the viability, T/C (second compound 0.3 µM, first compound 0.949 µM) was 69.1%, the viability, T/C (second compound 0.3 µM, first compound 3 µM) was 27.9% and the viability, T/C (second compound 0.949 µM, first compound 0.00949 µM) was 124%. It also gave a viability, T/C (second compound 0.949 µM, first compound 0.03 µM) of 137%, a viability, T/C (second compound 0.949 µM, first compound 0.0949 µM) of 119% and a viability, T/C (second compound 0.949 µM, first compound 0.3 µM) of 107%. It also gave a viability, T/C (second compound 0.949 µM, first compound 0.949 µM) of 72.1%, a viability, T/C (second compound 0.949 µM, first compound 3 µM) of 29.9% and a viability, T/C (second compound 3 µM, first compound 0.00949 µM) of 136%. The viability, T/C (second compound 3 µM, first compound 0.03 µM) was 130%, the viability, T/C (second compound 3 µM, first compound 0.0949 µM) was 121% and the viability, T/C (second compound 3 µM, first compound 0.3 µM) was 106%. It also gave a viability, T/C (second compound 3 µM, first compound 0.949 µM) of 67.4% and a viability, T/C (second compound 3 µM, first compound 3 µM) of 26.5%.

`CCN1CCN(Cc2ccc(Nc3ncc(F)c(-c4cc(F)c5nc(C)n(C(C)C)c5c4)n3)nc2)CC1` + CNC(C)C(=O)NC1CN(S(=O)(=O)c2cccc(S(=O)(=O)N3CCC4CCC(C(=O)NC(c5ccccc5)c5ccccc5)N4C(=O)C(NC(=O)C(C)NC)C3)c2)CCC2CCC(C(=O)NC(c3ccccc3)c3ccccc3)N2C1=O was tested, and the IC50 (second compound 0.01 µM) was under 3.16 nM, the IC50 (second compound 0.0316 µM) was under 3.16 nM and the IC50 (second compound 0.1 µM) was under 3.16 nM. It also gave an IC50 (second compound 0.316 µM) of under 3.16 nM, an IC50 (second compound 1 µM) of under 3.16 nM and a viability, T/C [1] of 5.3%. The viability, T/C [2] was 6.9%, the viability, T/C [3] was 9.46% and the viability, T/C [4] was 7.15%. For the same molecule, the viability, T/C [5] was 6.5%, the viability, T/C [6] was 5.95% and the viability, T/C [7] was 4.57%. For the same molecule, the viability, T/C [8] was 4.1%, the viability, T/C [9] was 3.84% and the viability, T/C [10] was 4.62%. It also gave a viability, T/C [11] of 6.92%, a viability, T/C [12] of 5.07% and a viability, T/C [13] of 3.7%. The viability, T/C [14] was 4.39%, the viability, T/C [15] was 3.41% and the viability, T/C [16] was 3.01%. For the same molecule, the viability, T/C [17] was 4.87%, the viability, T/C [18] was 3.86% and the viability, T/C [19] was 2.69%. For the same molecule, the viability, T/C [20] was 4.01%, the viability, T/C [21] was 3.79% and the viability, T/C [22] was 4.21%. It also gave a viability, T/C [23] of 3.33%, a viability, T/C [24] of 3.67% and a viability, T/C [25] of 2.84%. The viability, T/C [26] was 3.75%, the viability, T/C [27] was 3.08% and the viability, T/C [28] was 3.26%. For the same molecule, the viability, T/C [29] was 3.93% and the viability, T/C [30] was 3.85%.

Molecule `Cn1ncnc1[C@H]1c2n[nH]c(=O)c3cc(F)cc(c23)N[C@@H]1c1ccc(F)cc1` + CNC(C)C(=O)NC1CN(S(=O)(=O)c2cccc(S(=O)(=O)N3CCC4CCC(C(=O)NC(c5ccccc5)c5ccccc5)N4C(=O)C(NC(=O)C(C)NC)C3)c2)CCC2CCC(C(=O)NC(c3ccccc3)c3ccccc3)N2C1=O has an IC50 (second compound 0.01 µM) of under 0.316 nM, an IC50 (second compound 0.0316 µM) of under 0.316 nM and an IC50 (second compound 0.1 µM) of under 0.316 nM. For the same molecule, the IC50 (second compound 0.316 µM) was under 0.316 nM, the IC50 (second compound 1 µM) was under 0.316 nM and the viability, T/C (second compound 0.01 µM, first compound 0.000316 µM) was 5.99%. The viability, T/C (second compound 0.01 µM, first compound 0.001 µM) was 6.41%, the viability, T/C [1] was 5.39% and the viability, T/C [2] was 5.55%. The viability, T/C [3] was 9.54%, the viability, T/C [4] was 6.44% and the viability, T/C (second compound 0.0316 µM, first compound 0.000316 µM) was 7.02%. The viability, T/C (second compound 0.0316 µM, first compound 0.001 µM) was 6.75%, the viability, T/C [7] was 5.6% and the viability, T/C [8] was 4.53%. For the same molecule, the viability, T/C [9] was 3.1%, the viability, T/C [10] was 4.55% and the viability, T/C (second compound 0.1 µM, first compound 0.000316 µM) was 4.37%. For the same molecule, the viability, T/C (second compound 0.1 µM, first compound 0.001 µM) was 3.32%, the viability, T/C [13] was 4.82% and the viability, T/C [14] was 3.9%. For the same molecule, the viability, T/C [15] was 2.51%, the viability, T/C [16] was 3.65% and the viability, T/C (second compound 0.316 µM, first compound 0.000316 µM) was 3.1%. For the same molecule, the viability, T/C (second compound 0.316 µM, first compound 0.001 µM) was 3.37%, the viability, T/C [19] was 3.42% and the viability, T/C [20] was 3.57%. The viability, T/C [21] was 2.58%, the viability, T/C [22] was 4.61% and the viability, T/C (second compound 1 µM, first compound 0.000316 µM) was 2.27%. For the same molecule, the viability, T/C (second compound 1 µM, first compound 0.001 µM) was 4.58%, the viability, T/C [25] was 3.37% and the viability, T/C [26] was 3%. It also gave a viability, T/C [27] of 3.76% and a viability, T/C [28] of 5.53%.

In the case of `O=C(c1ccc(F)c(F)c1Nc1ccc(I)cc1F)N1CC(O)([C@@H]2CCCCN2)C1` + CNC(C)C(=O)NC1CN(S(=O)(=O)c2cccc(S(=O)(=O)N3CCC4CCC(C(=O)NC(c5ccccc5)c5ccccc5)N4C(=O)C(NC(=O)C(C)NC)C3)c2)CCC2CCC(C(=O)NC(c3ccccc3)c3ccccc3)N2C1=O, the IC50 (second compound 0.01 µM) is reported as under 3.16 nM, the IC50 (second compound 0.0316 µM) is reported as under 3.16 nM and the IC50 (second compound 0.1 µM) is reported as under 3.16 nM. For the same molecule, the IC50 (second compound 0.316 µM) was under 3.16 nM, the IC50 (second compound 1 µM) was under 3.16 nM and the viability, T/C [1] was 8.04%. The viability, T/C [2] was 5.36%, the viability, T/C [3] was 5.61% and the viability, T/C [4] was 8.2%. The viability, T/C [5] was 12.4%, the viability, T/C [6] was 17.3% and the viability, T/C [7] was 3.55%. The viability, T/C [8] was 6.82%, the viability, T/C [9] was 5.25% and the viability, T/C [10] was 3.88%. For the same molecule, the viability, T/C [11] was 6.05%, the viability, T/C [12] was 7.48% and the viability, T/C [13] was 4.86%. For the same molecule, the viability, T/C [14] was 5.49%, the viability, T/C [15] was 4.59% and the viability, T/C [16] was 2.13%. The viability, T/C [17] was 3.06%, the viability, T/C [18] was 4.14% and the viability, T/C [19] was 7.23%. The viability, T/C [20] was 3.09%, the viability, T/C [21] was 3.2% and the viability, T/C [22] was 2.51%. For the same molecule, the viability, T/C [23] was 3.39%, the viability, T/C [24] was 3.61% and the viability, T/C [25] was 3.63%. The viability, T/C [26] was 3.54%, the viability, T/C [27] was 4.37% and the viability, T/C [28] was 2.53%. For the same molecule, the viability, T/C [29] was 2.07% and the viability, T/C [30] was 3.08%.
